Results published in patent US7597899B2, “Compositions comprising a combination of a free sphingoid base and ceramide and uses thereof” (Cosmoferm B.V., priority 1997, dated 2009).

Tested on: IL-1α
Test: IL-1α secretion by UV-B irradiated excised human skin explants (ELISA), marker for antiinflammatory activity
Assay type: cell-based
Details: applied before and after UV-B irradiation, * significant p < 0.05
Procedure: The effect of phytosphingosine was assessed ex vivo on excised human skin explants.
The explant was exposed to UV-B rays as a physical, proinflammatory stress.
The antiinflammatory effect of phytosphingosine was evaluated by measurement of the amount of the cytokine IL-1α secreted in the incubation medium of the skin explants.
• Preparation of the human skin explants obtained after plastic surgery using standard techniques. • Application of the test product: • resp. 0% (Placebo), 0.2 and 0.5% phytosphingosine (PS) in Propylene glycol:Ethanol (60:40). • Dexamethasone (1 μM) was used as the reference product. • The products were applied before and after irradiation (˜2 mg/cm^2) • IL-1α secretion was measured in the incubation medium of the skin explants, using a standard ELISA technique. • Each experimental condition was performed in triplicate.

Row | SMILES | IL-1α secreted in the incubation medium (Dexamethasone 1 μM, before UV-B 48, after UV-B 205, placebo 165) | IL-1α secreted in the incubation medium (0.2% PS in Propylene glycol:Ethanol (60:40), ~2 mg/cm^2, placebo 165) | IL-1α secreted in the incubation medium (0.5% PS in Propylene glycol:Ethanol (60:40), ~2 mg/cm^2, placebo 165)
1 | C[C@@H]1C[C@H]2[C@@H]3CCC4=CC(=O)C=C[C@]4(C)[C@@]3(F)[C@@H](O)C[C@]2(C)[C@@]1(O)C(=O)CO [Dexamethasone, reference compound] | 116* pg per ml | – | –
2 | CCCCCCCCCCCCCCC(O)C(O)C(N)CO (stereo not drawn) [PS, 2-amino-octadecane-1,3,4-triol] | – | 82* pg per ml | 92* pg per ml
